From patent US20050059710A1, “Diphenylamino ketone derivatives as MEK inhibitors” (Pfizer Inc, priority 2003, published 2005)
pIC50: −log10 of the molar value.

How the values were obtained:
MEK [1] = test: Cellular assay for MEK inhibition: ERK phosphorylation in C26 cells (C26CPA1); assay type: cell-based; conditions: inhibition of ERK phosphorylation, murine colon 26 (C26) carcinoma cells, one hour at 37° C.
Description: (§1) Cellular Assay for Measuring MEK Inhibition
(§2) MEK inhibitors were evaluated by determining their ability to inhibit phosphorylation of MAP kinase (ERK) in murine colon 26 (C26) carcinoma cells. Since ERK1 and ERK2 represent the only known substrates for MEK1and MEK2, the measurement of inhibition of ERK phosphorylation in cells provides direct read out of cellular MEK inhibition by the compounds of the invention. Detection of phosphorylation of ERK was carried out either by Western blot or ELISA format. Briefly, the assays involve treatment of exponentially growing C26 cells with varying concentrations of the test compound (or vehicle control) for one hour at 37° C. For Western blot assay, cells were rinsed free of compound/vehicle and lysed in a solution containing 70 mM NaCl, 50 mM glycerol phosphate, 10 mM HEPES, pH 7.4, 1% Triton X-100, 1 mM Na3VO4, 100 μM PMSF, 10 μM leupeptin and 10 μM pepstatin. Supernatants were then subjected to gel electrophoresis and hybridized to a primary antibody recognizing dually phosphorylated ERK1 and ERK2. To evaluate total MAPK levels, blots were subsequently ‘stripped’ and re-probed with a 1:1 mixture of polyclonal antibodies recognizing unphosphorylated ERK1 and ERK2. For pERK ELISA assay, pERK TiterZyme Enzyme immunometric Assay kits were acquired from Assay Designs, Inc (Ann Arbor, Mich.). […]

MEK [2] = test: Cellular assay for MEK inhibition: ERK phosphorylation in C26 cells, pERK ELISA format (C26ELSA); assay type: cell-based; conditions: inhibition of ERK phosphorylation, murine colon 26 (C26) carcinoma cells, one hour at 37° C.
Description: as §1, §2

SMILES	melting point [°C]	pIC50 (MEK [1])	pIC50 (MEK [2])
C#Cc1ccc(Nc2c(C(=O)c3nccs3)ccc(F)c2F)c(F)c1 [Example 3, [2-(4-Ethynyl-2-fluoro-phenylamino)-3,4-difluoro-phenyl]-thiazol-2-yl-methanone]	161		
O=C(CO)c1ccc(F)c(F)c1Nc1ccc(I)cc1F [Example 1, 1-[3,4-Difluoro-2-(2-fluoro-4-iodo-phenylamino)-phenyl]-2-hydroxy-ethanone]	128 to 128.5	8.19	7.70
Cc1coc(C(=O)c2ccc(F)c(F)c2Nc2ccc(I)cc2F)n1 [Example 5, [3,4-Difluoro-2-(2-fluoro-4-iodo-phenylamino)-phenyl]-(4-methyl-oxazol-2-yl)-methanone]	127	6.54	
C#Cc1ccc(Nc2c(C(=O)c3ccccn3)ccc(F)c2F)c(F)c1 [Example 2, [2-(4-Ethynyl-2-fluoro-phenylamino)-3,4-difluoro-phenyl]-pyridin-2-yl-methanone]	109 to 111		

More lines, now with the values ahead:

melting point [°C]	pIC50 (MEK [1])	pIC50 (MEK [2])	SMILES
166			C#Cc1ccc(Nc2c(C(=O)c3nccn3C)ccc(F)c2F)c(F)c1 [Example 4, [2-(4-Ethynyl-2-fluoro-phenylamino)-3,4-difluoro-phenyl]-(1-methyl-1H-imidazol-2-yl)-methanone]
78 to 80			C#Cc1ccc(Nc2c(C(C)=O)ccc(F)c2F)c(F)c1 [Example 10, 1-[2-(4-Ethynyl-2-fluoro-phenylamino)-3,4-difluoro-phenyl]-ethanone]
